For this assay, the target named is T1, GPR73 (prokineticin 1 receptor) (Homo sapiens, UniProt Q8TCW9).
T1 construct: expressed in transfected cells; host or cells: HEK 293
The assay can be described thus: PK1 functional assay: Ca2+ mobilization on the FLIPR. The assay is classed as cell-based. The following applies: for inhibition at 10 µM: read-out: Ca^2+ Mobilization % Inh @10 µM; for IC50: HEK 293 GPR73 cells, read-out: Ca^2+ Mobilization IC50. Here is the method:
At a time of 24 h prior to running the assay, in cell culture media (DMEM containing high Glucose and L-glutamine, 10% FBS, 1% Pen/Streptomycin, 1% Sodium Pyruvate, 20 mM HEPES, Zeocin 200 mg/L), 100 µL of 1.3*10^6/ml HEK 293 GPR73 (prokineticin 1 receptor) expressing cells were plated in a 96 well poly-d-lysine coated plate (Costar), and incubated at 37° C. and 5% CO2. On the day in which the assay was run, the media was removed and 200 µL of 5× Calcium Plus Dye (Molecular Devices) which was previously resuspended with 200 mL of assay buffer [HBSS w/Ca^2+ and Mg^2+ w/o phenol red, 20 mM HEPES, 0.1% BSA, 10 mL probenecid (710 mg probenecid in 5 mL of 1N NaOH, to which was then added 5 mL HBSS containing 20 mM HEPES)] was added to each well of the 96-well plate. The plate was incubated at 37° C. and 5% CO2 for 30 min in dark. The plate was removed and allowed to reach RT for 15 min in the dark. The assay was then run on the FLIPR. In Brief: base line read for 1 min, compound added (25 μL) and incubated for 4 min, 15 seconds, PK1 ligand preparation added (25 μL) for a final concentration of a previously determined EC50 and fluorescence was counted for 1 min, 45 seconds. Baseline is described as the amount of relative fluorescence read when buffer alone is added to cells. Baseline was subtracted from all wells. Percent of control was calculated as follows: (Baseline subtracted well value is divided by baseline subtracted max value)*100. Percent inhibition is 100 minus the percent of control value.
The IC50 is defined as the amount of a given compound required to inhibit 50% of the maximum signal that is generated by the concentration of PK1 preparation used in our assay. IC50 values were calculated using GraphPad Prism.

SMILES strings stand for the structures. “And” between values parts separate entries of the source, which are not always exact repeats. Equal entries are not always repeated. Where two headings read alike, the source gives them in different places.

T1 sequence (Q8TCW9 whole entry, species assumed): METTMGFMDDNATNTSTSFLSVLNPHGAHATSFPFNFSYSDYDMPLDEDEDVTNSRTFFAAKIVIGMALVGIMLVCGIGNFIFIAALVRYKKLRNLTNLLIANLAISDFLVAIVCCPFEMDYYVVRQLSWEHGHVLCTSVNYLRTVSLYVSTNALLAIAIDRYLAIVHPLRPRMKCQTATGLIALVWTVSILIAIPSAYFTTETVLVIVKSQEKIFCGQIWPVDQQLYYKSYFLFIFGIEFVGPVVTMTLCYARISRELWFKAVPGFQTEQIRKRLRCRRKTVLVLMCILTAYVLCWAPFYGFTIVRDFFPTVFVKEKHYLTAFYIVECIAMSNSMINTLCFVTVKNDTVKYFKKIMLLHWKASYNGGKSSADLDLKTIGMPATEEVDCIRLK

As to `Nc1ncc(CCNc2nc(=O)n(Cc3ccc4c(c3)CCO4)c(=O)n2Cc2ccc3c(c2)CCO3)[nH]1` [Cpd 66], the IC50 (commonly the midpoint of a concentration-inhibition curve) amounted to 2.42 µM. Also, the inhibition at 10 µM (10 µM) was found to be 69%.
Consider `Nc1nccn1CCNc1nc(=O)n(Cc2ccc(F)cc2)c(=O)n1Cc1ccc(OC(F)(F)F)cc1` [Cpd 22], for which the concentration for half-maximal inhibition (IC50) worked out at 0.061 µM. Further, for the setting “10 µM”, the inhibition at 10 µM was determined as 100%.
`Nc1nc2ccc(F)c(F)c2n1CCNc1nc(=O)n(Cc2ccc(F)cc2)c(=O)n1Cc1ccc(OC(F)F)cc1` [Cpd 29]: the IC50 was 0.406 µM. Moreover, the inhibition at 10 µM (10 µM) turned out to be 83%.
Turning to `Nc1ncc(CCNc2nc(=O)n(Cc3ccc(F)cc3)c(=O)n2Cc2ccc(OC(F)(F)F)cc2)[nH]1` [Cpd 54, 6-[2-(2-Amino-3H-imidazol-4-yl)-ethylamino]-3-(4-fluoro-benzyl)-1-(4-trifluoromethoxy-benzyl)-1H-[1,3,5]triazine-2,4-dione], the IC50 is 0.027 µM and 0.183 µM. Moreover, under “10 µM, (further determination)”, the inhibition at 10 µM amounted to 95%. Also, the inhibition at 10 µM (10 µM) was 96%. In addition, the IC50 (IC50 (further determination)) came out at 0.097 µM.
Take `COc1ccc(Cn2c(NCCn3c(N)nc4ccccc43)nc(=O)n(Cc3ccc(SC)cc3)c2=O)cc1` [Cpd 70]: the IC50 worked out at 0.022 µM. In addition, under “10 µM”, the inhibition at 10 µM was found to be 103%.
Turning to `Nc1ncc(CCNc2nc(=O)n(Cc3ccc4c(c3)CCO4)c(=O)n2Cc2ccc(OC(F)F)cc2)[nH]1` [Cpd 82], the IC50 was 0.202 µM. In addition, the inhibition at 10 µM (10 µM) is 96%.
On to `Nc1ncc(CCNc2nc(=O)n(Cc3ccc(F)cc3)c(=O)n2Cc2ccc(OC(F)F)cc2)[nH]1` [Cpd 53], for which the IC50 was found to be 0.036 µM. The inhibition at 10 µM (10 µM, (further determination)) was determined as 100%. For the same molecule, where the note is “10 µM”, the inhibition at 10 µM was 93%. Also, the IC50 (IC50 (further determination)) was 0.015 µM.
As to `NC1=Nc2cc(Cl)ccc2CN1CCNc1nc(=O)n(Cc2ccc(F)cc2)c(=O)n1Cc1ccc(OC(F)(F)F)cc1` [Cpd 50], the 50% inhibitory concentration (IC50) is 0.332 µM. Where the note is “10 µM”, the inhibition at 10 µM amounted to 99%.
With `Nc1nc2cc(C(F)(F)F)ccc2n1CCNc1nc(=O)n(Cc2ccc(F)cc2)c(=O)n1Cc1ccc(OC(F)(F)F)cc1` [Cpd 35], the half-maximal inhibitory concentration (IC50) is 5.01 µM. In addition, the inhibition at 10 µM (10 µM) was 59%.
As for `CCc1ccc(Cn2c(=O)nc(NCCn3c(N)nc4ccccc43)n(Cc3ccc(OC(F)F)cc3)c2=O)cc1` [Cpd 86], the IC50 was determined as 0.337 µM. For the same molecule, where the note is “10 µM”, the inhibition at 10 µM was found to be 94%.
In the case of `Nc1nc2cc(F)ccc2n1CCNc1nc(=O)n(Cc2ccc(F)cc2)c(=O)n1Cc1ccc(OC(F)(F)F)cc1` [Cpd 34], the IC50 was 0.363 µM. In addition, the inhibition at 10 µM (10 µM) is 87%.
Consider `Nc1nc2cccc(F)c2n1CCNc1nc(=O)n(Cc2ccc(F)cc2)c(=O)n1Cc1ccc(OC(F)(F)F)cc1` [Cpd 40], for which the IC50 came out at 0.969 µM. Besides, the inhibition at 10 µM (10 µM) turned out to be 91%.
Take `Nc1nccn1CCNc1nc(=O)n(Cc2ccc(F)cc2)c(=O)n1Cc1ccc(OC(F)F)cc1` [Cpd 23]: the IC50 stood at 0.028 µM. For the same molecule, where the note is “10 µM, (further determination)”, the inhibition at 10 µM came to 97%. Also, the inhibition at 10 µM (10 µM) turned out to be 100%. Where the note is “IC50 (further determination)”, the IC50 came out at 0.057 µM.
For the molecule `Nc1nc2ccc(F)cc2n1CCNc1nc(=O)n(Cc2ccc(F)cc2)c(=O)n1Cc1ccc(OC(F)F)cc1` [Cpd 25], the concentration for half-maximal inhibition (IC50) was 0.17 µM. Moreover, the inhibition at 10 µM (10 µM) came out at 87%.
As to `NC1=Nc2ccc(O)cc2CN1CCNc1nc(=O)n(Cc2ccc(F)cc2)c(=O)n1Cc1ccc(OC(F)F)cc1` [Cpd 56], the 50% inhibitory concentration (IC50) was found to be 0.161 µM. For the setting “10 µM”, the inhibition at 10 µM came out at 100%.
With `Nc1nc2ccccc2n1CCNc1nc(=O)n(Cc2ccc3c(c2)CCO3)c(=O)n1Cc1ccc2c(c1)CCO2` [Cpd 76], the IC50 was determined as 0.225 µM. Further, under “10 µM”, the inhibition at 10 µM is 97%.
Take `NC1=Nc2cc(F)ccc2CN1CCNc1nc(=O)n(Cc2ccc(F)cc2)c(=O)n1Cc1ccc(OC(F)F)cc1` [Cpd 46]: the concentration for half-maximal inhibition (IC50) turned out to be 0.061 µM. In addition, the inhibition at 10 µM (10 µM) stood at 101%.
Take `Nc1nc2cc(F)ccc2n1CCNc1nc(=O)n(Cc2ccc(F)cc2)c(=O)n1Cc1ccc(OC(F)F)cc1` [Cpd 26]: the IC50 worked out at 0.081 µM. Moreover, the inhibition at 10 µM (10 µM, (further determination)) came to 88%. Also, under “10 µM”, the inhibition at 10 µM worked out at 92%. Where the note is “IC50 (further determination)”, the IC50 was found to be 0.015 µM.
On to `COc1ccc(Cn2c(NCCN3Cc4ccccc4N=C3N)nc(=O)n(Cc3ccc(F)cc3)c2=O)cc1` [Cpd 12, 6-[2-(2-Amino-4H-quinazolin-3-yl)-ethylamino]-3-(4-fluoro-benzyl)-1-(4-methoxy-benzyl)-1H-[1,3,5]triazine-2,4-dione], for which the IC50 came to 0.028 µM. The inhibition at 10 µM (10 µM) is 94%.
As to `Cn1nnc2cc(Cn3c(=O)nc(NCCc4cnc(N)[nH]4)n(Cc4ccc5c(c4)CCO5)c3=O)ccc21` [Cpd 68], the IC50 came out at 1.41 µM. In addition, the inhibition at 10 µM (10 µM) worked out at 78%.
With `CCc1ccc(Cn2c(=O)nc(NCCn3c(N)nc4ccccc43)n(Cc3ccc4c(c3)CCO4)c2=O)cc1` [Cpd 75], the IC50 came to 0.507 µM. Further, the inhibition at 10 µM (10 µM) turned out to be 83%.
Turning to `Nc1nc2cc(C(F)(F)F)ccc2n1CCNc1nc(=O)n(Cc2ccc(F)cc2)c(=O)n1Cc1ccc(OC(F)F)cc1` [Cpd 27], the IC50 was 0.31 µM. In addition, the inhibition at 10 µM (10 µM) is 85%.
For the molecule `COc1ccc(Cn2c(NCCn3c(N)nc4ccc(Cl)cc43)nc(=O)n(Cc3ccc(F)cc3)c2=O)cc1` [Cpd 10], the IC50 was found to be 0.155 µM. Besides, the inhibition at 10 µM (10 µM) came to 90%.
For the molecule `CSc1ccc(Cn2c(=O)nc(NCCc3cnc(N)[nH]3)n(Cc3ccc(OC(F)F)cc3)c2=O)cc1` [Cpd 80], the half-maximal inhibitory concentration (IC50) came out at 0.032 µM. Also, the inhibition at 10 µM (10 µM) amounted to 98%.
For `NC1=Nc2cc(Cl)ccc2CN1CCNc1nc(=O)n(Cc2ccc(F)cc2)c(=O)n1Cc1ccc(OC(F)F)cc1` [Cpd 44] the same measures were 0.118 µM and 103%.
For `COc1ccc(Cn2c(NCCn3c(N)nc4cc(S(C)(=O)=O)ccc43)nc(=O)n(Cc3ccc(F)cc3)c2=O)cc1` [Cpd 9], the IC50 was found to be 2.29 µM. For the same molecule, the inhibition at 10 µM (10 µM) came to 67%.
Regarding `Nc1nc2ccccc2n1CCNc1nc(=O)n(Cc2ccc(Cl)c(Cl)c2)c(=O)n1Cc1ccc2c(c1)CCO2` [Cpd 73], the IC50 is 0.186 µM. For the setting “10 µM”, the inhibition at 10 µM worked out at 90%.
For the molecule `Nc1nc2ccccc2n1CCNc1nc(=O)n(Cc2ccc(Cl)c(Cl)c2)c(=O)n1Cc1ccc(OC(F)F)cc1` [Cpd 84], the IC50 is 0.345 µM. In addition, the inhibition at 10 µM (10 µM) came out at 97%.
Turning to `COc1ccc(Cn2c(NCCn3c(N)nc4ccccc43)nc(=O)n(Cc3ccc4c(c3)CCO4)c2=O)cc1` [Cpd 72], the IC50 is 0.058 µM. The inhibition at 10 µM (10 µM) was 102%.
Regarding `Nc1nc2c(F)cccc2n1CCNc1nc(=O)n(Cc2ccc(F)cc2)c(=O)n1Cc1ccc(OC(F)(F)F)cc1` [Cpd 39], the IC50 stood at 0.38 µM. The inhibition at 10 µM (10 µM) is 80%.
In the case of `Nc1nc2ccccc2n1CCNc1nc(=O)n(Cc2ccc(F)cc2)c(=O)n1Cc1ccc(OC(F)(F)F)cc1` [Cpd 19], the IC50 amounted to 0.104 µM. Also, the inhibition at 10 µM (10 µM, (further determination)) is 100%. In addition, the inhibition at 10 µM (10 µM) was found to be 102%. Also, the IC50 (IC50 (further determination)) was 0.212 µM.
With `CCc1ccc(Cn2c(=O)nc(NCCc3cnc(N)[nH]3)n(Cc3ccc(OC(F)F)cc3)c2=O)cc1` [Cpd 81], the IC50 came to 0.502 µM. The inhibition at 10 µM (10 µM) worked out at 90%.
For `COc1ccc(Cn2c(NCCn3c(N)nc4cc(F)ccc43)nc(=O)n(Cc3ccc(F)cc3)c2=O)cc1` [Cpd 5], the concentration for half-maximal inhibition (IC50) is 0.069 µM. Further, the inhibition at 10 µM (10 µM) was 102%.
